Measurements as given in US20190315775A1, “MODIFIED […] AND PHARMACEUTICAL COMPOSITION HAVING SAME AS ACTIVE INGREDIENT” (KEIO UNIVERSITY, priority 2016, published 2019).
Blank lines part the entries; values can stand above or below the molecule they belong to.

What was measured:
[1] = Water solubility of drugs (saturation concentration by HPLC); format: physicochemical; conditions: 100 mM Tris-HCl (pH 7.5); for Water solubility: 25° C., saturation concentration; for Water solubility, relative ratio (numerals in parentheses): relative to TC11
[2] = test system: KMS34 high-risk MM cell line; assay: MTT cell proliferation inhibition, KMS34; format: cell-based; conditions: Homo sapiens, KMS-34, KMS34, t(4;14), del17, 48 hours, read-out: IC50, cell proliferation inhibitory activity, KMS34
Protocol: (§1) For examination of cell proliferation inhibitory activity, high-risk MM cell lines (KMM1, KMS11, KMS21, KMS26, KMS28, KMS34) established by Takemi Otsuki et al., of Kawasaki Medical School were used (Otsuki, T. et al., Int. J. Oncol., 15: 1205-1212, 1999). […] The genetic abnormality of these cell types, and in particular deletion of p53 gene were examined by FISH method (Chang, H. Blood, 105: 358-360, 2005) (WO2010/061862A1). […] These high-risk MM cell lines were treated with drugs such as TC11, HOEtO-TC11, PEG11(E)-TC11, and PEG11(O)-TC11 at arbitrary concentrations. […] Specifically, each high-risk MM cell line was prepared at a concentration of 2×10^5 cells/ml, and then seeded in an amount of 50 μl (1×10^4 cells) per well. After 24 hours, drugs such as TC11, HOEtO-TC11, PEG11(E)-TC11, and PEG11(O)-TC11 having arbitrary concentrations were added. At 48 hours after addition of each drug, 10 μL each of an MTT labeling reagent in Cell Proliferation Kit I [MTT] (Roche Diagnostics, Basel, Switzerland) was added. After 4 hours of treatment at 37° C., 100 μL each of solution buffer was added and then left to stand overnight at 37° C. Absorbance was measured using a microplate reader Infinit™ M1000 (Tecan, Maennedorf, Switzerland) at a wavelength of 570 nm. Cell viability was found from an absorbance ratio using absorbance at 0 μM designated as 100%. IC50 was calculated from a semi-logarithmic chart using Microsoft (registered trademark) Excel.

[3] = test system: KMS21 high-risk MM cell line; assay: MTT cell proliferation inhibition, KMS21; format: cell-based; conditions: Homo sapiens, KMS21, t(11;14), 48 hours, read-out: IC50, cell proliferation inhibitory activity, KMS21
Protocol: as §1
Moreover, the concentration dependency of the in vitro cell proliferation inhibitory activity of TC11, and its derivatives, PEG11(E)-TC11 and HOEtO-TC11 against high-risk MM cell line (KMS21) was examined in detail (FIG. 4). […] Such a phenomenon was similarly observed for other high-risk MM cell lines, KMS11, KMS34, and MUM24.

[4] = test system: KMS11 high-risk MM cell line; assay: MTT cell proliferation inhibition, KMS11; format: cell-based; conditions: Homo sapiens, KMS-11, KMS11, t(4;14), del17, 48 hours, read-out: IC50, cell proliferation inhibitory activity, KMS11
Protocol: as §1

[5] = test system: high-risk MM cell lines; assay: MTT cell proliferation inhibition, panel of high-risk MM cell lines; format: cell-based; conditions: Homo sapiens, range over the cell lines of Table 2, 48 hours
Protocol: as §1

[6] = test system: KMS26 high-risk MM cell line; assay: MTT cell proliferation inhibition, KMS26; format: cell-based; conditions: Homo sapiens, KMS-26, KMS26, t(4;14), t(4;16), del17, 48 hours, read-out: IC50, cell proliferation inhibitory activity, KMS26
Protocol: as §1

[7] = test system: KMS11 xenograft; assay: Antitumor effect on KMS11 cancer-bearing mice (Example 17); format: in vivo, ICR/SCID mice
Protocol: KMS11 was administered to 5-week-old ICR/SCID mice at 2×10^7 cells/mouse via hypodermic injection. Tumor volumes were measured over time, and the day on which the tumor volume exceeded 50 mm^3 was designated as Day 1 and observation was performed for 9 days. […] On the day of administration, these solutions were diluted 10-fold with physiological saline while stirring with Vortex, and then intraperitoneally administered. Tumor volume was calculated by the following formula.
Tumor volume (mm^3)=major axis×minor axis×minor axis×π/6=major axis×minor axis×minor axis×0.5236

[8] = test system: MUM24 MM cell line; assay: MTT cell proliferation inhibition, MUM24; format: cell-based; conditions: Homo sapiens, MUM24, t(4;14), del13, del17, 48 hours, read-out: IC50, cell proliferation inhibitory activity, MUM24
[9] = molecular target: T1, cereblon (CRBN) (Homo sapiens, UniProt Q96SW2); assay: Surface plasmon resonance biosensor (BIACORE 3000) interaction with cereblon; format: binding; conditions: measured at 1 μM, 2 μM and 10 μM, FIG. 9C
T1 construct: recombinant full-length CRBN prepared by the above method was reacted with the beads; T7 tag (N); FLAG tag (C); made in house; host or cells: 293T cells (pcDNA3.3 vector), RIPA extract purified on Ni Sepharose excel
T1 sequence (Q96SW2 whole entry): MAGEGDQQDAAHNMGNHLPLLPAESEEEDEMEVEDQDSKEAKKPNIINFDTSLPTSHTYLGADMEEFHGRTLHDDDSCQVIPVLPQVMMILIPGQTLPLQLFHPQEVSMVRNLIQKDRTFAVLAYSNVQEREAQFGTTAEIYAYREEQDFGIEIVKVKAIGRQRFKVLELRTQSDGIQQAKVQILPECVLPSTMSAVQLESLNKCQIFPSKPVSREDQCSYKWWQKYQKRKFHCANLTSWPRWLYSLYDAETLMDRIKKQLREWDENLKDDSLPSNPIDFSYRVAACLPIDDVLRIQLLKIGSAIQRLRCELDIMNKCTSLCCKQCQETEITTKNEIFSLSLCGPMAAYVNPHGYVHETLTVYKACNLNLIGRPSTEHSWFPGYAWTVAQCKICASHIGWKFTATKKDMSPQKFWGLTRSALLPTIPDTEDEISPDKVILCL

[10] = test system: KMM1 high-risk MM cell line; assay: MTT cell proliferation inhibition, KMM1; format: cell-based; conditions: Homo sapiens, KMM-1, KMM1, t(6;14), t(8;14), del17, 48 hours, read-out: IC50, cell proliferation inhibitory activity, KMM1
Protocol: as §1

[11] = test system: KMS34 high-risk MM cell line; assay: WST-1 cell proliferation inhibition (Example 8), KMS34; format: cell-based; conditions: Homo sapiens, KMS-34, WST-1, 48 hours, read-out: IC50, cell proliferation inhibitory activity, KMS34
Protocol: (§2) Similar to Example 7, high-risk MM cell lines were treated with drugs, TC11 and PEG5(E)-TC11 at arbitrary concentrations. […] Specifically, each high-risk MM cell line was prepared at 5×10^5 cells/ml, and then seeded at 50 μl per well (2.5×10^4 cells). Drugs such as TC11, and PEG5(E)-TC11 were added to wells at arbitrary concentrations. WST-1 reagent was added at 48 hours after addition of drugs. After 1 hour of reaction at 37° C. in a CO2 incubator, absorbance was measured at a wavelength of 450 nm using a microplate reader. Cell viability was found from an absorbance ratio using absorbance at 0 μM designated as 100%. IC50 was calculated from a semi-logarithmic chart using Microsoft (registered trademark) Excel.

[12] = test system: KMM1 high-risk MM cell line; assay: WST-1 cell proliferation inhibition (Example 8), KMM1; format: cell-based; conditions: Homo sapiens, KMM-1, WST-1, 48 hours, read-out: IC50, cell proliferation inhibitory activity, KMM1
Protocol: as §2

[13] = test system: KMS11 high-risk MM cell line; assay: WST-1 cell proliferation inhibition (Example 8), KMS11; format: cell-based; conditions: Homo sapiens, KMS-11, WST-1, 48 hours, read-out: IC50, cell proliferation inhibitory activity, KMS11
Protocol: as §2

[14] = test system: KMS21 high-risk MM cell line; assay: WST-1 cell proliferation inhibition (Example 8), KMS21; format: cell-based; conditions: Homo sapiens, WST-1, 48 hours, read-out: IC50, cell proliferation inhibitory activity, KMS21
Protocol: as §2

[15] = test system: high-risk MM cell lines; assay: WST-1 cell proliferation inhibition (Example 8), panel of high-risk MM cell lines; format: cell-based; conditions: Homo sapiens; range over the cell lines of Table 3; WST-1, 48 hours
Protocol: as §2

[16] = molecular target: T1, cereblon (CRBN); assay: Pull-down assay of cereblon with biotinylated drug on streptavidin beads; format: binding; conditions: 30° C., 30 minutes, FIG. 9A
Protocol: CRBN was prepared as follows. A T7 tag was added 5′-upstream of, and a FLAG tag and a histidine tag were added 3′-downstream of a full-length CRBN gene. The gene was introduced into a pcDNA3.3 expression vector (Invitrogen), thereby constructing a plasmid DNA. Next, a Kozak sequence was added 5′-upstream of the T7 tag using a KOD-Plus-Mutagenesis Kit (TOYOBO). The plasmid DNA was transfected into 293T cells. After 4 days of culture at 37° C. with 5% CO2, cells were extracted with a RIPA buffer (Thermo), and then the extracted fraction was purified using Ni Sepharose excel (GE Healthcare). Since the purified fraction contained imidazole, TBS (Nacalai Tesque) was subjected to buffer exchange. […] Centrifugation was performed to separate the resultants into a flow-through (F) fraction and a bead (B) fraction. Protein bands corresponding to CRBN were separated by SDS-PAGE, and then detected by Western blot. […] Note that “I” indicates “Input fraction”.

Water solubility [1]: 0.082 g/100 ml
Water solubility, relative ratio (numerals in parentheses) [1]: 41 ×
SMILES: CC(C)c1cccc(C(C)C)c1N1C(=O)c2cc(N)c(OCCO[C@@H]3OC(CO)[C@@H](O)[C@H](O)C3O)cc2C1=O (stereo partly drawn) [Glu-TC11]

Binding to CRBN (SPR sensorgram) [9]: never bind to CRBN
Water solubility [1]: 0.027 g/100 ml
Water solubility, relative ratio (numerals in parentheses) [1]: 13.5 ×
SMILES: CC(C)c1cccc(C(C)C)c1N1C(=O)c2cc(N)c(OCCO)cc2C1=O [HOEtO-TC11, hydroxyethoxy-TC11]
IC50 [2]: 4.1 µM
IC50 [3]: 2.4 µM
IC50 [4]: 3.9 µM
IC50 [5]: 1 to 8 µM
IC50 [6]: 1.9 µM
KMS-11 tumor growth, level relative to the control ([7]; Day 9, HOEtO-TC11 71.1 mg/kg BW i.p.): about ⅓
KMS-11 tumor growth, level relative to TC11 ([7]; Day 9, HOEtO-TC11 71.1 mg/kg BW i.p. vs TC11 60 mg/kgBW): about a half
KMS-11 tumor growth compared to control mice ([7]; Day 9, i.p., equimolar to TC11 60 mg/kgBW): tumor growth was suppressed
IC50 [8]: 4 µM
IC50 [10]: 7.7 µM

Water solubility [1]: 0.002 g/100 ml
Water solubility, relative ratio (numerals in parentheses) [1]: 1 ×
SMILES: COCCOCCOCCOCCOCCC(=O)OCCOc1cc2c(cc1N)C(=O)N(c1c(C(C)C)cccc1C(C)C)C2=O [PEG5(E)-TC11]
IC50 [11]: 6.5 µM
IC50 [12]: 3.6 µM
IC50 [13]: 1.4 µM
IC50 [14]: 1.2 µM
IC50 [15]: 1.3 to 4.6 µM

SMILES: Nc1cccc2c1CN(C1CCC(=O)NC1=O)C2=O (stereo not drawn) [lenalidomide, reference compound]
In vivo anti-tumor effect compared to HOEtO-TC11 ([7]; lenalidomide 49.9 mg/kgBW i.p., KMS11 xenograft): clearly weaker than that of HOEtO-TC11

Binding of CRBN to drug immobilized on beads (pull-down, Western blot) [16]: bound
SMILES: O=C1CCC(N2C(=O)c3ccccc3C2=O)C(=O)N1 (stereo not drawn) [thalidomide]
